Results published in US10118944B2, “Cell penetrating peptides for intracellular delivery of molecules” (AADIGEN, LLC, priority 2012, dated 2018).

What was measured:
MCF7 [1] = assay: VEPEP-5 mediated delivery of C4 peptide (targeting cdk2/cyclin A), cell proliferation; type: cell-based, Human; settings: VEPEP-5 (Short-6, Short-7 and Short 11) mediated delivery
Procedure: (§1) Adherent HS68 fibroblasts, HeLa, PC3, Jurkat, CEM-SS and U2OS MCF-7 cell lines (from American Type Culture Collection (ATCC)), as well as MEF and PBMC were cultured in Dulbecco's Modified Eagle's Medium supplemented with 2 mM glutamine, 1% antibiotics (streptomycin 10,000 μg/ml, penicillin, 10,000 IU/ml) and 10% (w/v) foetal calf serum (FCS), at 37° C. in a humidified atmosphere containing 5% CO2. Stock solutions of VEPEP-5/peptide particles were prepared by complexing 1 μM peptide with VEPEP-5 peptides at a molar ratio of 1/20 for 30 min at 37° C. Lower concentrations of VEPEP-5-carrier/peptide (from 500 nM to 1 μM) were obtained by serial dilution of the stock complexes in PBS, in order to preserve the same VEPEP-5-carrier/peptide ratio. 150 000 cells seeded in a 35 mm dish the day prior transfection, were grown to 60% confluence and overlaid with 200 μl of preformed complexes, incubated for 3-5 min, then 400 μl of DMEM were added. After 30 min. incubation at 37° C., 1 ml of fresh DMEM containing 16% foetal calf serum (FCS) was added in order to reach a final FCS concentration of 10%, without removing the overlay of VEPEP-5/peptide complexes. Cells were returned to the incubator for 24 hrs. For CDK2 derived peptides cell proliferation was monitored after 24 and 48 hrs. Data reported are an average of 3 or 4 distinct experiments. […]

Hela [2] = assay: as above; type: cell-based, Human; settings: VEPEP-5 (Short-6, Short-7 and Short 11) mediated delivery
Procedure: as §1

U2OS [3] = assay: VEPEP-5 mediated delivery of proteins (fluorescence/FACS); type: cell-based, Human; settings: % of the cells
Procedure: (§2) Adherent HS68 fibroblasts, HeLa, PC3, Jurkat, CEM-SS and U2OS MCF-7 cell lines (from American Type Culture Collection (ATCC)), as well as MEF and PBMC were cultured in Dulbecco's Modified Eagle's Medium supplemented with 2 mM glutamine, 1% antibiotics (streptomycin 10,000 μg/ml, penicillin, 10,000 IU/ml) and 10% (w/v) foetal calf serum (FCS), at 37° C. in a humidified atmosphere containing 5% CO2. Stock solutions of VEPEP-5/peptide particles were prepared by complexing 1 μM peptide with VEPEP-5 peptides at a molar ratio of 1/20 for 30 min at 37° C. Lower concentrations of VEPEP-5-carrier/peptide (from 500 nM to 1 μM) were obtained by serial dilution of the stock complexes in PBS, in order to preserve the same VEPEP-5-carrier/peptide ratio. 150 000 cells seeded in a 35 mm dish the day prior transfection, were grown to 60% confluence and overlaid with 200 μl of preformed complexes, incubated for 3-5 min, then 400 μl of DMEM were added. After 30 min. incubation at 37° C., 1 ml of fresh DMEM containing 16% foetal calf serum (FCS) was added in order to reach a final FCS concentration of 10%, without removing the overlay of VEPEP-5/peptide complexes. Cells were returned to the incubator for 24 hrs. For CDK2 derived peptides cell proliferation was monitored after 24 and 48 hrs. Data reported are an average of 3 or 4 distinct experiments.
(§3) VEPEP-5 have been used for the delivery of different proteins into different cell lines, including primary cell lines, stem cell lines and challenging cell lines. Protein uptake was monitored using fluorescence spectroscopy and FACS analysis. GFP/RFP or Fluorescent labelled proteins were visualized in the different cell lines using fluorescence microscopy or FACS sorting (Table 5). In most of the cell lines, the uptake of RFP; GFP, Cy-5 labelled proteins is more than 50% of the cells.

CEM-SS [4] = assay: as above; type: cell-based, Human; settings: % of the cells
Procedure: as §2, §3

Jurkat = assay: as above; type: cell-based, Human; settings: % of the cells
Procedure: as §2, §3

MCF7 [5] = assay: as above; type: cell-based, Human; settings: MCF7, % of the cells
Procedure: as §2, §3

HS-68 [6] = assay: as above; type: cell-based, Human; settings: HS-68, % of the cells
Procedure: as §2, §3

Hela [7] = assay: as above; type: cell-based, Human; settings: % of the cells
Procedure: as §2, §3

[8] = Fluorescence titration, VEPEP-5/SHM binding: doxorubicin; settings: cargo Doxorubicin
Procedure: (§4) Fluorescence experiments were performed on a PTI spectrofluorimeter at 25° C. in a NaCl 154 mM buffer. Intrinsic Trp-fluorescence of VEPEP-5 was excited at 290 nm and emission spectrum was recorded between 310 and 400 nm, with a spectral band-pass of 2 and 8 nm for excitation and emission, respectively. FITC-fluorescence of labelled-peptide was excited at 492 nm and emission recorded between 500 and 580 nm. For […]/peptide interaction, 0.5 μM of FITC-labelled peptide was titrated by increasing concentrations of VEPEP-5. All measurements were corrected for the dilution and curve fitting were performed by using Grafit software (Erithacus).
(§5) VEPEP-5 peptides also form stable particles with small aromatic molecules including doxorubicin, porphyrin and charges molecules including nucleotide, nucleoside and peptide-analog of nucleic acids or fluorescent dyes (FIG. 1). The dissociation constant for small hydrophobic molecule ranges between 0.05 to 0.1 μM, depending on the nature of the dyes and of the peptides (Table 2).

[9] = Fluorescence titration, VEPEP-5/SHM binding: FAM-guanosine; settings: cargo FAM-guanosine
Procedure: as §4, §5

MEF [10] = assay: VEPEP-5 mediated delivery of proteins (fluorescence/FACS); type: cell-based, Mouse; settings: % of the cells
Procedure: as §2, §3

[11] = Fluorescence titration, VEPEP-5/SHM binding: porphyrin; settings: cargo porphyrin
Procedure: as §4, §5

MEF [12] = assay: VEPEP-5 mediated delivery of fluorescent labelled peptide (microscopy/FACS); type: cell-based, Mouse; settings: % of the cells
Procedure: as §2
(§6) VEPEP-5 peptides (Short-6, Short-7 and Short 11) have been used for the delivery of different peptides into different cell lines, including primary cell lines, stem cell lines and challenging cell lines. Peptide delivery was monitored using three approaches, fluorescence spectroscopy and monitoring biological responses (anti proliferation)
(§7) 1—Fluorescent labelled peptide was visualized in the different cell lines using fluorescence microscopy or FACS sorting (Table 3). In most of the cell lines, the uptake of Cy-5 labelled peptides is more than 70% of the cells

HeLa and U2OS cells = assay: Toxicity of VEPEP-5 particles by MTT assay; type: cell-based, Human
Procedure: Cytotoxic response was measured 24 hr later by colorimetric MTT assay (Sigma, Germany), respectively. […] Results correspond to the average of 3 separate experiments.

U2OS [13] = assay: VEPEP-5 mediated delivery of fluorescent labelled peptide (microscopy/FACS); type: cell-based, Human; settings: % of the cells
Procedure: as §2, §6, §7

PBMC = assay: as above; type: cell-based, Human; settings: % of the cells
Procedure: as §2, §6, §7

CEM-SS [14] = assay: as above; type: cell-based, Human; settings: % of the cells
Procedure: as §2, §6, §7

MCF7 [15] = assay: as above; type: cell-based, Human; settings: MCF7, % of the cells
Procedure: as §2, §6, §7

HS-68 [16] = assay: as above; type: cell-based, Human; settings: HS-68, % of the cells
Procedure: as §2, §6, §7

Hela [17] = assay: as above; type: cell-based, Human; settings: % of the cells
Procedure: as §2, §6, §7

Cyclin B1 protein level = assay: VEPEP-5 mediated delivery of PNA antisense, Cyclin B1 knockdown; type: cell-based, Human; settings: controls: free PNA; scrambled PNA complexed with Short-6 and Short-11
Description: VEPEP-5 (Short-6, Short-7 and Short 11) peptides have been used for the delivery of nucleic acid analog (PNA and morpholino) into different cell lines, including primary cell lines and challenging cell lines. Uptake was monitored by following biological response (Cyclin B1 knockdown). We then have applied Short-6, Short-7 and Short 11 for the delivery of PNA antisense targeting Cyclin B1 as previously described by Morris et al..

MCF7 [18] = assay: VEPEP-5 mediated delivery of small hydrophobic molecules, inhibition of proliferation; type: cell-based; settings: Homo sapiens, free drug without carrier
Description: (§8) VEPEP-5 peptides (Short-6, Short-7 and Short 11) have been used for the delivery of different small hydrophobic molecules including doxorubicin and porphyrin on different cell lines including primary cell lines and challenging cell lines. VEPEP-5 peptides form stable particles with small aromatic molecules (table 2). Effect of VEPEP-5 mediated delivery of doxorubicin and porphyrin have been investigated on cancer cell viability. […] The impact of carrier peptides to improve cellular uptake of small molecule drugs was estimated by following inhibition of proliferation of cancer cells.

Hela [19] = assay: as above; type: cell-based; settings: Homo sapiens, free drug without carrier
Description: as §8

Compound: KKQVRMAHLVLT (synthesized peptide C4) [Short C4]
- peptide C4 concentration sufficient to block proliferation (MCF7 [1]): 100 nM
- peptide C4 concentration sufficient to block proliferation (Hela [2]): 100 nM

Compound: X1RSWFRLWFR [Short 11, X1 is beta-A or S; N-terminus acetylated, C-terminal cysteamide]
- uptake of RFP; GFP, Cy-5 labelled proteins (U2OS [3]): 71%
- uptake of RFP; GFP, Cy-5 labelled proteins (CEM-SS [4]): 65%
- uptake of RFP; GFP, Cy-5 labelled proteins (Jurkat): 78%
- uptake of RFP; GFP, Cy-5 labelled proteins (MCF7 [5]): 62%
- uptake of RFP; GFP, Cy-5 labelled proteins (HS-68 [6]): 70%
- uptake of RFP; GFP, Cy-5 labelled proteins (Hela [7]): 60%
- Binding, Doxorubicin [8]: yes
- Binding, FAM-guanosine [9]: yes
- uptake of RFP; GFP, Cy-5 labelled proteins (MEF [10]): 60%
- Binding, porphyrin [11]: yes
- Kd [11]: 0.7 µM
- Efficiency (uptake of fluorescent labelled peptide) (MEF [12]): 70%
- toxicity (MTT) (HeLa and U2OS cells; levels up to 200 nM): No toxicity
- toxicity (MTT) (HeLa and U2OS cells; maximum concentration of 1 μM): mild toxicity
- Efficiency (uptake of fluorescent labelled peptide) (U2OS [13]): 55%
- Efficiency (uptake of fluorescent labelled peptide) (PBMC): 78%
- Efficiency (uptake of fluorescent labelled peptide) (CEM-SS [14]): 70%
- Efficiency (uptake of fluorescent labelled peptide) (MCF7 [15]): 58%
- Efficiency (uptake of fluorescent labelled peptide) (HS-68 [16]): 80%
- Efficiency (uptake of fluorescent labelled peptide) (Hela [17]): 69%

Compound: TGC CAT CAA GCT TAG AGG-^CY5 (antisense TGCCATCAAGCTTAGAGG; all peptide nucleic acid (PNA); further chemistry not fully specified) [free PNA, PNA antisense targeting Cyclin B1, without carrier]
- change in Cyclin B1 level (Cyclin B1 protein level): no change

Compound: X1WFRLWFRLR [Short 7, X1 is beta-A or S; N-terminus acetylated, C-terminal cysteamide]
- uptake of RFP; GFP, Cy-5 labelled proteins (U2OS [3]): 80%
- uptake of RFP; GFP, Cy-5 labelled proteins (CEM-SS [4]): 60%
- uptake of RFP; GFP, Cy-5 labelled proteins (Jurkat): 70%
- uptake of RFP; GFP, Cy-5 labelled proteins (MCF7 [5]): 75%
- uptake of RFP; GFP, Cy-5 labelled proteins (HS-68 [6]): 80%
- uptake of RFP; GFP, Cy-5 labelled proteins (Hela [7]): 80%
- Binding, Doxorubicin [8]: yes
- Kd [8]: 0.07 µM
- Binding, FAM-guanosine [9]: yes
- uptake of RFP; GFP, Cy-5 labelled proteins (MEF [10]): 65%
- Binding, porphyrin [11]: yes
- Kd [11]: 0.5 µM
- Efficiency (uptake of fluorescent labelled peptide) (MEF [12]): 71%
- toxicity (MTT) (HeLa and U2OS cells; levels up to 200 nM): No toxicity
- toxicity (MTT) (HeLa and U2OS cells; maximum concentration of 1 μM): mild toxicity
- Efficiency (uptake of fluorescent labelled peptide) (U2OS [13]): 71%
- Efficiency (uptake of fluorescent labelled peptide) (PBMC): 80%
- Efficiency (uptake of fluorescent labelled peptide) (CEM-SS [14]): 75%
- Efficiency (uptake of fluorescent labelled peptide) (MCF7 [15]): 75%
- Efficiency (uptake of fluorescent labelled peptide) (HS-68 [16]): 78%
- Efficiency (uptake of fluorescent labelled peptide) (Hela [17]): 70%

Compound: X1WWRLWWRLR [Short 6, X1 is beta-A or S; N-terminus acetylated, C-terminal cysteamide]
- uptake of RFP; GFP, Cy-5 labelled proteins (U2OS [3]): 64%
- uptake of RFP; GFP, Cy-5 labelled proteins (CEM-SS [4]): 55%
- uptake of RFP; GFP, Cy-5 labelled proteins (Jurkat): 60%
- uptake of RFP; GFP, Cy-5 labelled proteins (MCF7 [5]): 70%
- uptake of RFP; GFP, Cy-5 labelled proteins (HS-68 [6]): 78%
- uptake of RFP; GFP, Cy-5 labelled proteins (Hela [7]): 55%
- Binding, Doxorubicin [8]: yes
- Binding, FAM-guanosine [9]: yes
- Kd [9]: 0.06 µM
- uptake of RFP; GFP, Cy-5 labelled proteins (MEF [10]): 65%
- Binding, porphyrin [11]: yes
- Kd [11]: 0.4 µM
- Efficiency (uptake of fluorescent labelled peptide) (MEF [12]): 64%
- toxicity (MTT) (HeLa and U2OS cells; levels up to 200 nM): No toxicity
- toxicity (MTT) (HeLa and U2OS cells; maximum concentration of 1 μM): mild toxicity
- Efficiency (uptake of fluorescent labelled peptide) (U2OS [13]): 68%
- Efficiency (uptake of fluorescent labelled peptide) (PBMC): 78%
- Efficiency (uptake of fluorescent labelled peptide) (CEM-SS [14]): 74%
- Efficiency (uptake of fluorescent labelled peptide) (MCF7 [15]): 59%
- Efficiency (uptake of fluorescent labelled peptide) (HS-68 [16]): 89%
- Efficiency (uptake of fluorescent labelled peptide) (Hela [17]): 45%

Compound: C1=Cc2cc3ccc(cc4nc(cc5ccc(cc1n2)[nH]5)C=C4)[nH]3 [Porphyrin, porphyrin]
- IC50 (MCF7 [18]): 17 µM
- IC50 (Hela [19]): 25 µM
